Experimental data reported in patent US20250051322A1, “CRYSTAL OF S[…], SALTS OF S[…], AND CRYSTALS THEREOF” (Eisai R&D Management Co., Ltd., priority 2022, published 2025).

Experiments:
[1] = system: orexin/ataxin 3 mice (Tg mice); assay: Test Example 4: alertness effect and cataplexy-like behavior inhibiting effect by dark period oral administration to orexin/ataxin 3 mice; format: in vivo, mouse; settings: for sleep latency: before lights off, solvent 0.21 hour; for DREM latency: solvent 1.16 hours, assessed up to maximum 4 hours
Source text: The experimental animals used were orexin/ataxin 3 mice (orexin/ataxin-3 Tg/+ (hereunder referred to as “Tg mice”), Hara et al., Neuron, 30, 345-54, 2001) with a C57BL/6 genetic background, with wild type mice (hereunder referred to as “WT mice”) of the same litter as the control. Electroencephalogram and electromyogram measuring electrodes were surgically embedded into 12-week-old mice (+2 weeks) under isoflurane anesthesia. After surgery, and following conditioning to the illumination cycle and experimentation procedure, electroencephalogram and electromyogram measurement were carried out and mice with proper electroencephalogram and electromyogram recording were supplied for the experiment. The solvent (0 mg/kg) or a specimen (solution of compound (I) dissolved in the solvent (0.3, 1 or 3 mg/kg)) was orally administered 30 to 15 minutes before lighting was turned off. The solvent used was a 0.1 mol/L hydrochloric acid solution containing 5% (v/v) DMSO and 5% (v/v) Kolliphor^R EL. The electroencephalogram and electromyogram were recorded for about 24 hours, from 1 hour before lighting was turned off. The mice were repeatedly used, with a washout period of 2 days or longer. The electroencephalogram and electromyogram data obtained for each mouse were used to assess the sleep stage every epoch (10 seconds), using sleep analysis software (SleepSign: Kissei Comtec Co., Ltd.), up to a maximum of 4 hours. For the purpose of this experiment, cataplexy-like symptoms were defined as REM sleep appearing immediately after wakefulness (direct transitions from wake to REM sleep (DREM)) for a contiguous period of 4 epochs or longer. DREM in mice is an analog of cataplexy (Exp Neurol. 2009:217:46-54). The time until initial sleep appeared after lighting out for each mouse (sleep for contiguous 8 epochs or longer, excluding DREM) (sleep latency) and the time until initial DREM appeared (DREM latency) were measured. The numbers of mice were 8 in the solvent-administered group and 14 in the compound (I)-administered group. The sleep latency in a disease control group and a compound (I)-administered group were compared by a Dunnet-type multiple comparison test following survival time analysis in consideration of the number of experiments and use of the same individuals, with a significance level of 5% at both ends for each. The DREM latency in the normal control group and disease control group were compared by survival time analysis in consideration of the number of experiments and use of the same individuals. Cases with significance in the statistical test for the disease control group and the compound (I)-administered group were compared by a Dunnet-type multiple comparison test following survival time analysis in consideration of the number of experiments and use of the same individuals, with a significance level of 5% at both ends for each.

[2] = system: Male C57BL/6NCrl mice; assay: Test Example 2: increase in spontaneous movement; format: in vivo, mouse; settings: 10 mg/kg orally, measured 2 hours after administration, control group = 100%
Method: Increased movement in mice is an indicator of increased alertness time, higher body temperature and augmented cardiovascular parameters, as well as heightened alertness. In this test example, the alertness effect was evaluated by measuring spontaneous movement of the mice. Male C57BL/6NCrl mice (18-19 weeks old, Charles River Laboratories, Japan Inc., 4 mice in each group) were used for the experiment. Spontaneous movement was measured by using a movement measuring device (VersaMax Open Field, AccuScan Instruments, Inc.), irradiating infrared rays from the side sections of the measuring cage, and quantifying the number of times that the mice passed through the irradiated rays. After placing the mice in the measuring cage and conditioning for 3 hours, compound (I) was orally administered (10 mg/kg). Spontaneous movement was measured 2 hours after administration. The mice in the compound (I)-administered group were administered a solution of compound (I) dissolved in 0.1 mol/L hydrochloric acid containing 5% (v/v) DMSO and 5% (v/v) Kolliphor^R EL. For the control group, solvent alone without compound (I) was administered to the mice.
Spontaneous movement was represented as a percentage for the compound (I)-administered group, with spontaneous movement in the control group as 100%.

[3] = target: T1, hOX1R (Homo sapiens, UniProt O43613); assay: Test Example 1-1: activating activity for OX1R (intracellular calcium, HEK293 with forced expression); format: cell-based; settings: calcium fluorescence, 3×10^-10 M to 1×10^-7 M, 10 nM OX-A as 100%
T1 construct: expressed in transfected cells; host or cells: HEK293
T1 sequence (O43613 1-425): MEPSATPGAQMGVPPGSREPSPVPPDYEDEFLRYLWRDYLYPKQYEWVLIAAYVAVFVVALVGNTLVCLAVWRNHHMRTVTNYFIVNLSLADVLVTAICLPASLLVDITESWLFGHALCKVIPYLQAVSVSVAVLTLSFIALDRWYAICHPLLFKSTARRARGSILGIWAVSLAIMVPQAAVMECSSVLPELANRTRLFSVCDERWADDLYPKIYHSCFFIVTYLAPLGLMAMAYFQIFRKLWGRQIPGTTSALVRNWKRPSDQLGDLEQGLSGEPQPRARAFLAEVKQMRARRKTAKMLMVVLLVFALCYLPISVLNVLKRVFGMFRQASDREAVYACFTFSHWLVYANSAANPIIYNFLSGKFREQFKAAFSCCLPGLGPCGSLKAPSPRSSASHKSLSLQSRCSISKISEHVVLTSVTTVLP
Method: Human Embryonic Kidney cells 293 (HEK293) cells with forced expression of hOX1R and hOX2R were seeded in a 384-well microplate (Greiner) at 10,000 per well and cultured for 24 hours in high-glucose-DMEM (FujiFilm Corp.-Wako Pure Chemical Industries, Ltd.) containing added 10% FBS (Thermo Scientific) and 1% Penicillin-Streptomycin (FujiFilm Corp.-Wako Pure Chemical Industries, Ltd.). After removing the medium, there was added 40 μL of assay buffer (20 mM HEPES (Sigma-Aldrich Japan, KK.), Hank's Balanced Salt Solution (Gibco), 0.1% BSA (Sigma-Aldrich Japan, KK.), 0.1% Pluronic F-127 (Biotium, Inc.)) containing Calcium 4 dye (Molecular Device Corporation) and 2.5 mM probenecid (Sigma-Aldrich Japan, KK.), and the mixture was incubated for 60 minutes. After further adding 20 μL of assay buffer, 20 μL of assay buffer containing the test compound was added and reaction was initiated. Change in intracellular calcium ion concentration by the reaction was measured based on the fluorescence intensity ratio in terms of the fluorescence value with dual wavelength excitation at 480 nm and 540 nm, using FDSS7000 (Hamamatsu Photonics, K.K.). The test compound was dissolved in DMSO to 10 mM, and diluted with assay buffer to a final concentration of from 3×10^−10 M to 1×10^−7 M (DMSO final concentration of 0.1%). […]

[4] = system: C57BL/6 line wild type (WT) male mice; assay: Test Example 3: alertness effect (sleep latency, EEG/EMG) by dark period oral administration to wild type mice; format: in vivo, mouse; settings: before lights off, solvent 0.23 hour
Method: The experimental animals used were C57BL/6 line wild type (WT) male mice. Electroencephalogram and electromyogram measuring electrodes were surgically embedded into 13-week-old mice under isoflurane anesthesia. After surgery, and following conditioning to the illumination cycle and experimentation procedure, electroencephalogram and electromyogram measurement were carried out and mice with proper electroencephalogram and electromyogram recordings were supplied for the experiment. The solvent (0 mg/kg) or a solution of compound (I) dissolved in the solvent (1, 3 or 10 mg/kg) was orally administered 30 to 15 minutes before lighting was turned off. The solvent used was a 0.1 mol/L hydrochloric acid solution containing 5% (v/v) DMSO and 5% (v/v) Kolliphor^R EL. The electroencephalogram and electromyogram were recorded for about 24 hours, from 1 hour before lighting was turned off. The mice were repeatedly used, with a washout period of 2 days or longer. The electroencephalogram and electromyogram data obtained for each mouse were used to assess the sleep stage every epoch (10 seconds), using sleep analysis software (SleepSign: Kissei Comtec Co., Ltd.). […] Using 16 mice in each administered group, the sleep latency in a solvent-administered group (control group) and a compound (I)-administered group were compared by a Dunnet-type multiple comparison test following survival time analysis in consideration of the number of experiments and use of the same individuals, with a significance level of 5% at both ends for each.

Row | Structure (SMILES) | sleep latency ([1]; 0.3 mg/kg oral) [h] | sleep latency ([1]; 1 mg/kg oral, significant) [h] | sleep latency ([1]; 3 mg/kg oral, significant) [h] | DREM latency ([1]; 0.3 mg/kg oral, significant) [h] | DREM latency ([1]; 1 mg/kg oral, significant) [h] | DREM latency ([1]; 3 mg/kg oral, significant) [h] | Spontaneous movement (% of Control) [2] | EC50 [3] [nM] | sleep latency ([4]; 1 mg/kg oral) [h] | sleep latency ([4]; 3 mg/kg oral, significant) [h] | sleep latency ([4]; 10 mg/kg oral, significant) [h]
1 | CO[C@@H]1CN(c2ncc(F)cn2)CC[C@@H]1[C@@H]1C[C@H]2CC[C@@H](C1)N2[C@@H](C(N)=O)C1CC1 [Example 1, (2R)-2-cyclopropyl-2-{(1R,3S,5S)-3-[(3S,4R)-1-(5-fluoropyrimidin-2-yl)-3-methoxypiperidin-4-yl]-8-azabicyclo[3.2.1]octan-8-yl}acetamide] | 0.31 | 0.64 | 2.42 | – | – | – | – | – | – | – | –
2 | CO[C@@H]1CN(c2ncc(F)cn2)CC[C@@H]1[C@@H]1C[C@H]2CC[C@@H](C1)N2[C@@H](C(N)=O)C1CC1 [Compound (I), (2R)-2-cyclopropyl-2-{(1R,3S,5S)-3-[(3S,4R)-1-(5-fluoropyrimidin-2-yl)-3-methoxypiperidin-4-yl]-8-azabicyclo[3.2.1]octan-8-yl}acetamide] | – | – | – | 1.50 | 2.26 | 4.00 | 865 % of Control | > 100 | 0.28 | 0.44 | 2.07
